Entries after “also recorded” stand apart in the source; their conditions may differ.
Tested on: ethanol/HCl mixture-induced gastric lesions
Test: ethanol/HCl mixture-induced gastric lesion test in rats
Assay type: in vivo, Male Sprague Dawley rats
Conditions: for inhibition of the formation of gastric lesions (gastric lesion score) relative to vehicle alone: 200 μmol/kg by oral gavage 30 min before 60% ethanol in 150 mM HCl intragastrically, lesions scored 60 min later, vehicle 0.5% Methocel, FIG. 1
Procedure: The ethanol/HCl mixture-induced gastric lesion test in rats described by Takeuchi et al, J. Pharmacol. Exp. Ther., 286: 115-121 (1998), was used to evaluate gastric lesion activity. Male Sprague Dawley rats (Charles River Laboratories, Wilmington, Ma.) weighing 230-250 g were used for the experiments. The rats were housed with laboratory chow and water ad libitum prior to the study. The rats were fasted for 24 hours with free access to water and then dosed by oral gavage with vehicle or with the test compounds given at a volume of 0.5 ml/100 g body weight. Thirty minutes after oral dosing all the rats received 1 ml of a solution of 60% ethanol in 150 mM HCl intragastrically. Food was withheld after dosing. Sixty minutes after ethanol/HCl, rats were euthanized by pre-charged CO2. The stomachs were dissected along the greater curvature, washed with a directed stream of 0.9% saline and pinned open on a sylgard based petri dish for examination of the hemorrhagic lesions. Gastric lesion score was expressed in mm and calculated by summing the length of each lesion as described by Al-Ghamdi et al, J. Int. Med. Res., 19:2242 (1991). Results are expressed as the mean ± standard error of the mean. Statistical analysis were conducted using ANOVA test followed by a Student-Newman-Keuls post-hoc test using the Abacus Concepts, Super Anova computer program (Abacus Concepts, Inc., Berkeley, Calif.).

| SMILES | inhibition of the formation of gastric lesions (gastric lesion score) relative to vehicle alone | inhibition of the formation of gastric lesions (gastric lesion score) relative to lanzoprazole (200 μmol/kg by oral gavage 30 min before ethanol/HCl, p<0.05, FIG. 1) |
| --- | --- | --- |
| Cc1c(CC(F)(F)F)ccnc1C[S+]([O-])c1nc2ccccc2n1COC(=O)CCC(=O)N(Cc1ccccc1)CC(C)(C)SN=O (stereo not drawn) [Example 2, {2-({[3-Methyl-4-(2,2,2-trifluoroethyl)-2-pyridyl]methyl}sulfinyl)benzimidazolyl]-methyl-3-{N-[2-methyl-2-(nitrosothio)-propyl]-N-benzylcarbamoyl}propanoate] | significantly inhibited the formation of gastric lesions | inhibited the formation of gastric lesions |
| Cc1c(OCC(F)(F)F)ccnc1C[S+]([O-])c1nc2ccccc2[nH]1 (stereo not drawn) [Lanzoprazole, 2-(((3-methyl-4-(2,2,2-trifluoro-ethoxy)-2-pyridinyl)methyl)sulfinyl)-1H-benzimidazole, reference compound] | did not significantly inhibit the formation of gastric lesions; also recorded: failed to significantly inhibit the formation of gastric lesions |  |
